Experimental data reported in patent US11634458B2, “Peptides and compositions for use in cosmetics and medicine” (LIPOTRUE, S.L., priority 2018, dated 2023).
Entries after “also recorded” stand apart in the source; their conditions may differ.

Legend:
LAN cells = experiment: Measurement of acetylcholine release in differentiated LAN cells stimulated with 50 mM KCl; format: cell-based; details: 1 hour treatment, 0.001, 0.005 and 0.01 mg/mL (Ac-SEQ ID NO: 8-NH2: 0.005 and 0.05 mg/mL)
Description: Said peptides were tested for their ability to modulate acetylcholine release in vitro. To that end, LAN cells were seeded on 48-well culture plates and allowed to reach the appropriate confluence under controlled conditions (37° C., 5% CO2) before inducing differentiation by replacing the culture media with Neurobasal® A media, supplemented with N-2 Supplement, GlutaMAX™, choline chloride and Leukemia Inhibition factor (GIBCO, Life technologies, MA, USA). Once the cells acquired its differentiated morphology, they were treated with the peptides mentioned above at the following concentrations for 1 hour: all peptides, except Ac-SEQ ID NO: 8-NH2, at 0.001 mg/mL, 0.005 mg/mL and 0.01 mg/mL; and peptide Ac-SEQ ID NO: 8-NH2 at 0.005 mg/mL and 0.05 mg/mL. Cells were then washed with HEPES, before stimulation of acetylcholine release by depolarization with external 50 mM KCl solution. Non-stimulated cells were incubated with non-depolarizing 4 mM KCl solution. After 30 minutes of incubation with the corresponding depolarizing or non-depolarizing KCl solution, cell supernatants were collected and used to measure acetylcholine levels with Amplex Red Acetylcholine Assay Kit (ThermoFisher Scientific, MA, USA). Cell pellets were used to determine protein content by BCA Protein Test Assay (Pierce BCA Protein Assay kit, ThermoFisher Scientific, MA, USA) (for data normalization purposes).
Percentage of acetylcholine release inhibition was calculated considering 100% release for the positive control (non-treated stimulated with KCl cells).

[1] = test system: human skeletal muscle myocytes; experiment: Gene expression modulation in skeletal muscle human myocytes (RTqPCR contractility gene panel); format: cell-based; details: 24 hours, vs basal control
Description: Said peptides were tested to evaluate their capacity to modulate the expression of several genes related with muscle contraction and relaxation in human skeletal muscle myocytes (Lodish H, Berk A, Zipursky S L, et al. (2000), Molecular Cell Biology, 4th edition; Section 18.3 Myosin: The Actin Motor Protein, Nueva York, W. H. Freeman; Kuo, I Y, & Ehrlich, B E (2015), Signaling in Muscle Contraction, Cold Spring Harbor Perspectives in Biology, 7(2); RAPSN receptor associated protein of the synapse [Homo sapiens (human)], Gene ID in NCBI 5913; Blake D J, Tinsley J M, Davies K E (1996), Utrophin: a structural and functional comparison to dystrophin, Brain Pathol., 6(1):37-47; Barik A, Lu Y, Sathyamurthy A, et.al. (2014), LRP4Is Critical for Neuromuscular Junction Maintenance, The Journal of Neuroscience, 34(42), 13892-13905; Kim N, Stiegler A L, Cameron T O, Hallock P T, et.al. (2008), Lrp4 is a Receptor for Agrin and Forms a Complex with MuSK, Cell, 135(2), 334-342; Mahavadi S, Nalli A, Kumar D, et.al. (2014), Increased expression of caveolin-1 is associated with upregulation of the RhoA/Rho kinase pathway and smooth muscle contraction in diabetes (1110.11), The FASEB Journal, 28:1_supplement)). To that end, a contractility smart data gene panel was designed. Said contractility smart data gene panel analyses the expression of the genes related with muscular contraction and relaxation included in table 5.
Briefly, human skeletal muscle myoblasts were seeded in duplicate in 12-well culture plates at a density of 1×10^5 cells/well and maintained at standard culture conditions (37° C., 95% humidity, 5% CO2) for 48-72h. Myoblast differentiation to myocyte was then induced with specific differentiation media (SKM-D medium+1% Antibiotic-Antimycotic) and monitored for 7 more days. Differentiated cells were treated with 0.05 mg/mL of peptide Ac-SEQ ID NO: 5-NH2; or with 0.1 mg/mL of peptide Ac-SEQ ID NO: 10-NH2 for 24 hours; or with 0.05 and 0.5 mg/mL of peptide Ac-SEQ ID NO: 8-NH2 for 6h; or with 0.5 mg/mL of peptide Ac-SEQ ID NO: 8-NH2 for 24 h. Untreated cells were used as basal control. Cells were then lysed for RNA extraction with a RNA purification commercial kit following manufacturer instructions (RNeasy mini kit, Qiagen, Netherlands). RNA was then quantified by nanodrop, adjusted in concentration and processed for retrotranscription to cDNA using a commercially available kit (High-Capacity cDNA Reverse Transcription kit, Thermofisher Scientific, USA). Resulting cDNA was used to perform a RTqPCR (Real Time Quantitative Polymerase Chain Reaction) using taqman technology and a panel of probes designed to target the specific genes related to muscle contractility mentioned in table 4.

Munc18/Syntaxin-1 = Munc18/Syntaxin-1 (Homo sapiens, UniProt Q16623); experiment: ELISA-based in vitro Munc18/Syntaxin-1 binding assay; details: peptide 0.1, 0.5 and 1 mM; Munc18 100 nM, Syntaxin-1 10 and 5 nM; control = 100% binding
Munc18/Syntaxin-1, sequence (Q16623 whole entry): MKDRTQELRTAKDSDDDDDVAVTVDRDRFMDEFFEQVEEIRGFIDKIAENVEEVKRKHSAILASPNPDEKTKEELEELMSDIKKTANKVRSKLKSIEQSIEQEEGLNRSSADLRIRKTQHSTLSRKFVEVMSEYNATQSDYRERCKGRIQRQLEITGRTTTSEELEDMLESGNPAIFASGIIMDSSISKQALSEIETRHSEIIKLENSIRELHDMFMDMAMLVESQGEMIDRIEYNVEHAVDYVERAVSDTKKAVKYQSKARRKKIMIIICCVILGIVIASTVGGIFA
Description: The capacity of the peptides to inhibit Munc18 protein-protein interaction with Syntaxin-1, a SNARE complex protein, was functionally evaluated by means of an ELISA-based in vitro Munc18/Syntaxin-1 binding assay. Briefly, the above-mentioned peptides at 0.1, 0.5 and 1 mM were preincubated with their target protein Syntaxin-1 (GST-tagged) at 10 and 5 nM in buffer (20 mM Hepes, 150 mM NaCl, 2 mM MgC2, 2 mM DTT, 0.5% Triton-X100 and 0.5% non-fat milk) for 3 hours at RT. Meanwhile, His-tagged Munc18 was bound to a Nickel-coated 96-well plate at 100 nM and incubated at RT for 1.5 hours. Non-bound protein was subsequently washed away before blocking wells with non-fat milk in wash buffer (PBS+0.02% Triton-X100) for additional 30 minutes. GST-tagged Syntaxin-1 preincubated with the peptides was then added at 10 and 5 nM to the plate and incubated for 2 h at RT. Wells were washed three times with wash buffer before incubation with the primary antibody (GST tag polyclonal antibody—Thermofisher Scientific, Massachusetts, USA) for 45 minutes. Finally, after washing again, HRP-conjugated secondary antibody (Anti-Rabbit-IgG-HRP—Sigma, Missouri, USA) was added and incubated at RT. TMB substrate (3,3′,5,5′-Tetramethylbenzidine) was used to develop signal. […] Amount of binding of Syntaxin-1 protein to Munc18 protein was analysed by measuring absorbance at 450 nm.

[2] = test system: human muscle cells and motor neurons derived from hiPSC co-cultures; experiment: Contraction frequency in human muscle cell / hiPSC motor neuron co-cultures; format: cell-based; details: 0.5 mg/mL
Description: The potential of said peptide Ac-SEQ ID NO: 8-NH2 to modulate the contraction frequency was evaluated in vitro using human muscle cells and motor neurons derived from hiPSC co-cultures, by means of live-imaging video of localized contractile muscle fibers recorded with an InCell 2200 automated microscope during 60 seconds, before and after treatment (after treatment, at each of the established timepoints).
Human muscle cells were cultivated at a density of 1×10^6 cells in T75 cm^2 flasks and then transferred to 96 well plates for differentiation. Motor neurons derived from hiPSC were transferred onto the 96 well plates containing the muscle cells in a differentiation medium. Co-cultures were maintained for 10 days in order to generate neurons junctions with muscle fibers. Spontaneous contractions were observed within 5 days.
Co-cultures were then treated with control medium (basal), 1 μM α-bungarotoxin, 0.5 mg/mL of acetyl hexapeptide-8 as a benchmark reference and 0.05 or 0.1 mg/mL of peptide Ac-SEQ ID NO: 8-NH2. Movies of co-cultures were recorded during 60 seconds before treatment and, after 30 minutes of incubation, movies were recorded again during 60 seconds. The culture plate was incubated again for 1 h 30 min with compounds (2 h of total incubation), and movies of co-cultures were recorded again during 60 seconds. The culture plate was incubated again for a total of 24 h with compounds and at the end of the incubation movies were recorded again during 60 seconds. Finally, compounds were washed out and a last recording after 24 h from said washed out of the compounds was done to assess an eventual recovery of muscle contractions (recovery).
Frequencies of contraction were calculated before and after each incubation. For each culture condition, 6 wells were analyzed.

SH-SY5Y cells = experiment: Exocytosis levels and delay (fluorescent exocytosis reporter); format: cell-based, human; details: 1 mg/mL, 1 hour, PMA + ionomycin, vs non-treated cells
Description: The potential of said peptide Ac-SEQ ID NO: 8-NH2 to modulate the exocytosis of vesicles containing neurotransmitters from a neuroblastoma cell line was evaluated in vitro using SH-SY5Y cells, by fluorescence imaging using a Zeiss axiovert 200 inverted epifluorescence microscope with a 20× objective and a Xenon lamp.
SH-SY5Y cells (Sigma, USA) were cultured in T25 flasks in supplemented medium (DMEM/F12, Gibco, USA). Above 90% confluence, cells were trypsinized with 1 ml of 0.5% (v/v) Trypsin-EDTA. Next, 5 mL of said supplemented medium was added and cell concentration determined. Cells were seeded onto polyLysine-coated 12 mm-treated coverslips in 24 well-plates at 15×10^4 cells/well in supplemented medium (Gibco, USA) and incubated at regular conditions (37° C., 5% CO2). After 24 h cell seeding, cells were transfected with exocytosis reporter using Lipofectamine™ 3000 (Invitrogen, USA) following manufacturer's instructions. Reporter construct contained fusion protein made up of intraluminal-specific proteins and a pH-sensitive fluorescent protein.
For exocytosis monitorization, after 48 h of protein expression, cells were incubated with 0.01 mg/mL of Ac-SEQ ID NO: 8-NH2 peptide or 1 mg/mL of the benchmark acetyl hexapeptide-8 for 1 h at 37° C. and 5% CO2. Non-treated cells were used as basal control. […] Fluorescence imaging was done for the last 10 min of the stimulation protocol. Fluorescence signal of exocytosis reporter was monitored employing 483-512 nm excitation-filter and 525-530 nm emission-filter. […]
Non-treated cells were assayed in N=4 independent experiments with n=16 coverslips (483 cells measured), acetyl hexapeptide-8-treated cells in N=3 independent experiments with n=10 coverslips (328 cells measured) and Ac-SEQ ID NO: 8-NH2-treated cells in N=3 independent experiments with n=8 coverslips (240 cells measured). Cells were selected to individually monitor fluorescence intensity and time-course. Fluorescence peak evoked by ionomycin addition was used to quantify exocytosis by calculating the Area under the curve (AUC) using GraphPad software. Two parameters were defined and analyzed: • Exocytosis levels: For individual cells, total peak area was obtained from AUC analysis and was normalized by the baseline that was defined as fluorescence intensity 3-cycles before lonomycin injection. • Exocytosis delay: For individual cells, response time (min) was obtained from AUC analysis as time frame between lonomycin injection (Y) and initiation of peak (firstX).
Fluorescence values were further normalized as percentage change to non-treated cells on each experiment as: (exocytosis level of treated cells/exocytosis levels non-treated cells)×100 and (response time of treated cells/response time of non-treated cells)×100. […]

[3] = test system: permeabilized chromaffin cells; details: Blanes-Mira et al. 2002; cited from earlier work

## Ac-Arg-Arg-Arg-Phe-NH2 (Ac-RRRF-NH2) [Ac-SEQ ID NO: 10-NH2]
LAN cells
  Result: modulation of acetylcholine release: Active in the modulation of
[1]; 0.1 mg/mL
  CACNB1 gene expression: downregulation
  CHRNA1 gene expression: downregulation
  SCN3A gene expression: downregulation
  TNNC1 gene expression: downregulation
  UTRN gene expression: downregulation

## Ac-Arg-Met-Arg-Phe-NH2 (Ac-RMRF-NH2) [Ac-SEQ ID NO: 11-NH2]
LAN cells
  Result: modulation of acetylcholine release: Active in the modulation of

## Ac-Glu-Arg-Ile-Asn-Lys-Arg-Arg-Trp-NH2 (Ac-ERINKRRW-NH2) [Ac-SEQ ID NO: 13-NH2]
LAN cells
  Result: modulation of acetylcholine release: not able to inhibit the release of acetylcholine; also recorded: Non-active in the modulation

## Ac-Glu-Arg-Ile-Asn-Lys-Met-Arg-Tyr-NH2 (Ac-ERINKMRY-NH2) [Ac-SEQ ID NO: 14-NH2]
LAN cells
  Result: modulation of acetylcholine release: not able to inhibit the release of acetylcholine; also recorded: Non-active in the modulation

## Ac-His-Ile-Leu-Asp-Met-Trp-NH2 (Ac-HILDMW-NH2) [Ac-SEQ ID NO: 5-NH2]
LAN cells
  Result: modulation of acetylcholine release: Active in the modulation of
Munc18/Syntaxin-1
  Maximum inhibition of Munc18-Syntaxin-1 binding: 67%
[1]; 0.05 mg/mL
  ACTA1 gene expression: downregulation
  MYH1 gene expression: downregulation
  RAPSN gene expression: downregulation
  SCN3A gene expression: downregulation
  TNNC1 gene expression: downregulation
  UTRN gene expression: downregulation

## Ac-His-Ile-Leu-Asp-Trp-Trp-NH2 (Ac-HILDWW-NH2) [Ac-SEQ ID NO: 7-NH2]
LAN cells
  Result: modulation of acetylcholine release: Active in the modulation of

## Ac-His-Ile-Met-Asp-Phe-Trp-NH2 (Ac-HIMDFW-NH2) [Ac-SEQ ID NO: 6-NH2]
LAN cells
  Result: modulation of acetylcholine release: Active in the modulation of

## Ac-His-Ile-Met-Asp-Trp-Trp-NH2 (Ac-HIMDWW-NH2) [Ac-SEQ ID NO: 9-NH2]
LAN cells
  Result: modulation of acetylcholine release: Active in the modulation of

## acetyl hexapeptide-8 [reference compound]
[2]; after 30 min
  muscle contraction frequency with regard to the basal non-treated cells: 18%
[2]; after 24 h
  muscle contraction frequency with regard to the basal non-treated cells: 45%
[2]; after washout
  muscle contraction frequency with regard to the basal non-treated cells: 100%
SH-SY5Y cells
  change of exocytosis level: 7%
  exocytosis response time delay: 67%
[3]
  inhibition of exocytosis, maximum values: 40%
